pKi: −log10 of the molar value.
Molecular target: cAMP and cAMP-inhibited cGMP 3',5'-cyclic phosphodiesterase 10A (Homo sapiens, UniProt Q9Y233)
Assay: Fluorescence Polarization Assay: The fluorescence polarization assay for cyclic nucleotide phosphodiesterases was performed using an IMAP® FP kit supplied by Molecular Devices, Sunnyvale, Calif. (product # R8139). IMAP® technology has been applied previously to phosphodiesterase assays (Huang, W., et al., J. Biomol Screen, 2002, 7: 215). Assays were performed at room temperature in 384-well microtiter plates with an incubation volume of 20.2 μL. Solutions of test compounds were prepared in DMSO and serially diluted with DMSO to yield 8 μL of each of 10 solutions differing by 3-fold in concentration, at 32 serial dilutions per plate. 100% inhibition is determined using a known PDE10 inhibitor, which can be any compound that is present at 5,000 times its Ki value in the assay described as follows, such as papaverine (see Siuciak, et al. Neuropharmacology (2006) 51:386-396; Becker, et al. Behav Brain Res (2008) 186(2):155-60; Threlfell, et al., J Pharmacol Exp Ther (2009) 328(3):785-795), 2-{4-[pyridin-4-yl-1-(2,2,2-trifluoroethyl)-1H-pyrazol-3-yl]phenoxymethyl}quinoline succinic acid or 2-[4-(1-methyl-4-pyridin-4-yl-1H-pyrazol-3-yl)-phenoxymethyl]quinoline succinic acid (see Schmidt, et al. J Pharmacol Exp Ther (2008) 325:681-690; Threlfell, et al., J Pharmacol Exp Ther (2009) 328(3): 785-795). 0% of inhibition is determined by using DMSO (1% final concentrations). […]

Chain of cAMP and cAMP-inhibited cGMP 3',5'-cyclic phosphodiesterase 10A (Q9Y233 whole entry): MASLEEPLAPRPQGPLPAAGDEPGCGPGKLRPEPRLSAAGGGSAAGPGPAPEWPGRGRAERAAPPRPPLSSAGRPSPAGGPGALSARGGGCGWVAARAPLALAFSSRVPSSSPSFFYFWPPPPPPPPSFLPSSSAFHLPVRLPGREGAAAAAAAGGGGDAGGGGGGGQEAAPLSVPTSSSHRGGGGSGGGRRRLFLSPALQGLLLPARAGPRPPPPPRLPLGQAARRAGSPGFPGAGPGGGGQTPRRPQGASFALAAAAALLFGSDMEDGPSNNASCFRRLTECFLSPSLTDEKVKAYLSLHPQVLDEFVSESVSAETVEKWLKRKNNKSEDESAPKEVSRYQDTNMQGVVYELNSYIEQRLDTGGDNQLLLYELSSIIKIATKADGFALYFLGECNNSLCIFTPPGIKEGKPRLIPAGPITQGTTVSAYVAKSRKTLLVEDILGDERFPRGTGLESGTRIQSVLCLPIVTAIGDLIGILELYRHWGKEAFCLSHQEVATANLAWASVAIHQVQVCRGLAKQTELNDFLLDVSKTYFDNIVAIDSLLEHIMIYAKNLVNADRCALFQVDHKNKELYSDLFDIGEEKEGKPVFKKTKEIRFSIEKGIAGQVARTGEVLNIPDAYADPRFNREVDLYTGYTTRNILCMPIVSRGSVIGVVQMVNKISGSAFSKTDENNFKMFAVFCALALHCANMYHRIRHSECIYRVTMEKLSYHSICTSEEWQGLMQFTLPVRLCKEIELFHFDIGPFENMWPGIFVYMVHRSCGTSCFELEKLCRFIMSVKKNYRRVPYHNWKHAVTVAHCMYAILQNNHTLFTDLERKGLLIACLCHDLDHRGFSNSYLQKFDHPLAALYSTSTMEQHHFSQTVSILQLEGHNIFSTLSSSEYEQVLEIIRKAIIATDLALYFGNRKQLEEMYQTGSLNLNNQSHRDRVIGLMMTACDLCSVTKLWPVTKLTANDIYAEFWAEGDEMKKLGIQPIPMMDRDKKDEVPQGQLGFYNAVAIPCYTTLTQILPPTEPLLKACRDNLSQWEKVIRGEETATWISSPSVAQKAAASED

Cc1nc(N2CC(c3nc4ccccc4n3C)C2)cc(-n2nc(C)nc2C2CCOCC2)n1
pKi: 8.66
